Assays:
[1] = Half life of the prodrug in reaction buffer only (no alkaline phosphatase); type: physicochemical; conditions: reaction buffer without alkaline phosphatase; reaction buffer pH 7.4, no alkaline phosphatase
Procedure: (§1) Reaction Buffer (pH 7.4, 5 mM tris/1 mM Mg^2+/1 mM Zn^2+)
(§2) Diluted 5 ml of 50 mM tris stock, 1 ml of 50 mM MgCl2 stock, and 1 ml of ZnCl2 and then stocked to 10 ml with water.
The heat block was set at the 37 degrees. […] The aliquot […] of prodrug and drug standards were added into preheated Eppendorf tubes. Immediately after vortexing the aliquots of 25 μL of the all reaction solutions were made into the respective 96-well plate positions. The internal standard (75 μl of 500 ng/mL Glyburide) was added into all samples after each aliquots. That procedure was repeated at every 15 minute intervals for ˜4-5 hrs.
(§3) In the calculation of half life, we assumed that the disappearance of the mutual prodrug of this invention followed first order kinetics. Therefore,
(§4) The area peak ratio of prodrug vs IS was plotted against time first; the peak area ratios of later time points were normalized with the peak area ratio of initial time point (ASAP). The natural log of the normalized ratio was then plotted against time to generate a linear curve. The slope of this linear curve k was used for the following calculation.

alkaline phosphatase = alkaline phosphatase (Homo sapiens, UniProt P05187); test: Conversion of the mutual MRA-β-agonist prodrug to salmeterol and MRA after exposure to alkaline phosphatase in vitro (LCMS); type: in vitro ADME; conditions: for Example 29 (GS-343071) in ALP (Peak Area Ratio) Normalized / Example 29 (GS-343071) in ALP (Peak Area Ratio) mean / Formation of dipeptide (Sagara 2006) in ALP (Peak Area Ratio) Normalized / Formation of dipeptide (Sagara 2006) in ALP (Peak Area Ratio) mean: alkaline phosphatase; for Formation of dipeptide (Sagara 2006) in ALP (Peak Area Ratio) Normalized / Formation of dipeptide (Sagara 2006) in ALP (Peak Area Ratio) mean: from prodrug Example 29
Procedure: Conversion of the Mutual MRA-β-Agonist Prodrug (Described in Example 29) to Salmeterol and MRA after Exposure to Alkaline Phosphatase In Vitro
as §1, §2
Alkaline Phosphatase Stock Solution […]
Dissolved ˜2 mg of the mutual prodrug of invention in 10 ml 1:1 acetonitrile/water.
Reaction Product Stock Solution
Dissolved ˜2 mg of each MRA and β-agonist in 20 ml 1:1 acetonitrile/water
The stock solutions were mixed in microcentrifuge tubes, as depicted in the following Table:
The heat block was set at the 37 degrees. Then 0.5 mL of alkaline phosphatase solution was added into 4 preheated Eppendorf tubes. The aliquot 0.5 of prodrug and drug standards were added into preheated Eppendorf tubes. Immediately after vortexing the aliquots of 25 μL of the all reaction solutions were made into the respective 96-well plate positions. The internal standard (75 μl of 500 ng/mL Glyburide) was added into all samples after each aliquots. That procedure was repeated at every 15 minute intervals for ˜4-5 hrs.
The 96-well plates were then analyzed using the LCMS technique.
Half Life Calculation (t1/2)
as §3, §4
Graphic plotted rate constant of loss K
Drug Concentration Determination
Drug concentrations are calculated by normalizing the peak area ration to (t 0). Thus, calculated drug concentrations at any time point=normalized peak area ratio [t (0) mean/t mean]×initial drug concentration. Data (normalized peak area ratio) for the calculations of drug concentrations are listed in Table 1 and 2 for compounds in Example 29 (GS343071), salmeterol, and the dipeptide (M3 antagonist prepared by Sagara 2006).

Chain of alkaline phosphatase (P05187 23-506 limits assumed): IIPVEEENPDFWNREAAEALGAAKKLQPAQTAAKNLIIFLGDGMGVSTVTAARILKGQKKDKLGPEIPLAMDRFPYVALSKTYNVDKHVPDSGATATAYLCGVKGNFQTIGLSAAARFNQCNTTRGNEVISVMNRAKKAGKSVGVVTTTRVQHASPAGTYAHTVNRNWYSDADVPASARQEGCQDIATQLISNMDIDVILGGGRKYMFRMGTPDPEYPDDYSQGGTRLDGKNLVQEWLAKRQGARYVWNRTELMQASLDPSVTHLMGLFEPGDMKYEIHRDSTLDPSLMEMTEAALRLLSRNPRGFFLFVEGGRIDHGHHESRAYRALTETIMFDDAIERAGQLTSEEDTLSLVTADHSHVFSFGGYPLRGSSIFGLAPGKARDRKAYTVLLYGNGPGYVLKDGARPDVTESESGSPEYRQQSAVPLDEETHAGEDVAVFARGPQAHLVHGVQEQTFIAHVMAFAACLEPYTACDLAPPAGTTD

For `C[N+]1(Cc2cc(C(O)CNCCCCCCOCCCCc3ccccc3)ccc2OP(=O)(O)O)CCC(CNC(=O)[C@H]2CCCN2C(=O)[C@@H]2C[C@@H](O)CN2C(=O)CC(c2ccc(F)cc2)(c2ccc(F)cc2)c2ccc(F)cc2)CC1` (stereo partly drawn) [Example 29, 1-(5-{1-Hydroxy-2-[6-(4-phenyl-butoxy)-hexylamino]-ethyl}-2-phosphonooxy-benzyl)-4-{[(1-{4-hydroxy-1-[3,3,3-tris-(4-fluoro-phenyl)-propionyl]-pyrrolidine-(S)-2-carbonyl}-pyrrolidine-(R)-2-carbonyl)-amino]-methyl}-1-methyl-piperidinium], the half-life [1] was 12.8 h, the “Half Life t1/2” value (alkaline phosphatase; ALP Enzyme Conc. 0.224 mg/mL, 37 degrees, first order kinetics assumed) was 1.58 h and the “Calculated Compound Final Conc. (μM) at 270 mins.” value (alkaline phosphatase; Added Compound Initial Conc. 86.6 μM in Reaction Mixture, ALP Enzyme Conc. 0.443 mg/mL) was 7.8 µM. The “Example 29 (GS-343071) in ALP (Peak Area Ratio) Normalized” value (alkaline phosphatase; Time 0 mins, 37 degrees) was 1.0000, the “Example 29 (GS-343071) in ALP (Peak Area Ratio) mean” value (alkaline phosphatase; Time 0 mins, 37 degrees) was 0.2030 and the “Example 29 (GS-343071) in ALP (Peak Area Ratio) Normalized” value (alkaline phosphatase; Time 15.0 mins, 37 degrees) was 0.5887. For the same compound, the “Example 29 (GS-343071) in ALP (Peak Area Ratio) mean” value (alkaline phosphatase; Time 15.0 mins, 37 degrees) was 0.1195, the “Example 29 (GS-343071) in ALP (Peak Area Ratio) Normalized” value (alkaline phosphatase; Time 30.0 mins, 37 degrees) was 0.4340 and the “Example 29 (GS-343071) in ALP (Peak Area Ratio) mean” value (alkaline phosphatase; Time 30.0 mins, 37 degrees) was 0.0881. For the same compound, the “Example 29 (GS-343071) in ALP (Peak Area Ratio) Normalized” value (alkaline phosphatase; Time 45.0 mins, 37 degrees) was 0.3313, the “Example 29 (GS-343071) in ALP (Peak Area Ratio) mean” value (alkaline phosphatase; Time 45.0 mins, 37 degrees) was 0.0673 and the “Example 29 (GS-343071) in ALP (Peak Area Ratio) Normalized” value (alkaline phosphatase; Time 60.0 mins, 37 degrees) was 0.2850. For the same compound, the “Example 29 (GS-343071) in ALP (Peak Area Ratio) mean” value (alkaline phosphatase; Time 60.0 mins, 37 degrees) was 0.0579, the “Example 29 (GS-343071) in ALP (Peak Area Ratio) Normalized” value (alkaline phosphatase; Time 75.0 mins, 37 degrees) was 0.2387 and the “Example 29 (GS-343071) in ALP (Peak Area Ratio) mean” value (alkaline phosphatase; Time 75.0 mins, 37 degrees) was 0.0485. For the same compound, the “Example 29 (GS-343071) in ALP (Peak Area Ratio) Normalized” value (alkaline phosphatase; Time 90.0 mins, 37 degrees) was 0.2079, the “Example 29 (GS-343071) in ALP (Peak Area Ratio) mean” value (alkaline phosphatase; Time 90.0 mins, 37 degrees) was 0.0422 and the “Example 29 (GS-343071) in ALP (Peak Area Ratio) Normalized” value (alkaline phosphatase; Time 105 mins, 37 degrees) was 0.2017. The “Example 29 (GS-343071) in ALP (Peak Area Ratio) mean” value (alkaline phosphatase; Time 105 mins, 37 degrees) was 0.0410, the “Example 29 (GS-343071) in ALP (Peak Area Ratio) Normalized” value (alkaline phosphatase; Time 120 mins, 37 degrees) was 0.1788 and the “Example 29 (GS-343071) in ALP (Peak Area Ratio) mean” value (alkaline phosphatase; Time 120 mins, 37 degrees) was 0.0363. The “Example 29 (GS-343071) in ALP (Peak Area Ratio) Normalized” value (alkaline phosphatase; Time 135 mins, 37 degrees) was 0.1643, the “Example 29 (GS-343071) in ALP (Peak Area Ratio) mean” value (alkaline phosphatase; Time 135 mins, 37 degrees) was 0.0334 and the “Example 29 (GS-343071) in ALP (Peak Area Ratio) Normalized” value (alkaline phosphatase; Time 150 mins, 37 degrees) was 0.1397. The “Example 29 (GS-343071) in ALP (Peak Area Ratio) mean” value (alkaline phosphatase; Time 150 mins, 37 degrees) was 0.0284, the “Example 29 (GS-343071) in ALP (Peak Area Ratio) Normalized” value (alkaline phosphatase; Time 165 mins, 37 degrees) was 0.1310 and the “Example 29 (GS-343071) in ALP (Peak Area Ratio) mean” value (alkaline phosphatase; Time 165 mins, 37 degrees) was 0.0266. For the same compound, the “Example 29 (GS-343071) in ALP (Peak Area Ratio) Normalized” value (alkaline phosphatase; Time 180 mins, 37 degrees) was 0.1372, the “Example 29 (GS-343071) in ALP (Peak Area Ratio) mean” value (alkaline phosphatase; Time 180 mins, 37 degrees) was 0.0279 and the “Example 29 (GS-343071) in ALP (Peak Area Ratio) Normalized” value (alkaline phosphatase; Time 210 mins, 37 degrees) was 0.1163. The “Example 29 (GS-343071) in ALP (Peak Area Ratio) mean” value (alkaline phosphatase; Time 210 mins, 37 degrees) was 0.0236, the “Example 29 (GS-343071) in ALP (Peak Area Ratio) Normalized” value (alkaline phosphatase; Time 240 mins, 37 degrees) was 0.0978 and the “Example 29 (GS-343071) in ALP (Peak Area Ratio) mean” value (alkaline phosphatase; Time 240 mins, 37 degrees) was 0.0199. For the same compound, the “Example 29 (GS-343071) in ALP (Peak Area Ratio) Normalized” value (alkaline phosphatase; Time 270 mins, 37 degrees) was 0.0906, the “Example 29 (GS-343071) in ALP (Peak Area Ratio) mean” value (alkaline phosphatase; Time 270 mins, 37 degrees) was 0.0184 and the half-life (alkaline phosphatase; human, pH 7.4, ALP Enzyme Conc. 0.224 mg/mL, 37 degrees, first order kinetics assumed, read-out: Half Life t1/2) was 1.04 h. For the same compound, the half-life at 86.6 μM (alkaline phosphatase; human, pH 7.4, ALP Enzyme Conc. 0.443 mg/mL, 37 degrees, first order kinetics assumed, read-out: Half Life t1/2) was 0.72 h.

With `CN1CCC(CNC(=O)[C@H]2CCCN2C(=O)[C@@H]2CC(O)CN2C(=O)CC(c2ccc(F)cc2)(c2ccc(F)cc2)c2ccc(F)cc2)CC1` (stereo partly drawn) [dipeptide (Sagara 2006), 1-{4-hydroxy-1-[3,3,3-tris-(4-fluoro-phenyl)-propionyl]-pyrrolidine-(S)-2-carbonyl}-pyrrolidine-(R)-2-carboxylic acid-(1-methyl-piperidin-4-ylmethyl)-amide, reference compound] the “Formation of dipeptide (Sagara 2006) in ALP (Peak Area Ratio) Normalized” value (from here on “Formation … (Peak Area Ratio) Normalized”) (alkaline phosphatase; Time 0 mins, 37 degrees) was 1.0000, the “Formation of dipeptide (Sagara 2006) in ALP (Peak Area Ratio) mean” value (“Formation … (Peak Area Ratio) mean” below) (alkaline phosphatase; Time 0 mins, 37 degrees) was 0.1765 and the “Formation … (Peak Area Ratio) Normalized” value (alkaline phosphatase; Time 15.0 mins, 37 degrees) was 1.9830. For the same compound, the “Formation … (Peak Area Ratio) mean” value (alkaline phosphatase; Time 15.0 mins, 37 degrees) was 0.3500, the “Formation … (Peak Area Ratio) Normalized” value (alkaline phosphatase; Time 30.0 mins, 37 degrees) was 2.7365 and the “Formation … (Peak Area Ratio) mean” value (alkaline phosphatase; Time 30.0 mins, 37 degrees) was 0.4830. For the same compound, the “Formation … (Peak Area Ratio) Normalized” value (alkaline phosphatase; Time 45.0 mins, 37 degrees) was 2.7989, the “Formation … (Peak Area Ratio) mean” value (alkaline phosphatase; Time 45.0 mins, 37 degrees) was 0.4940 and the “Formation … (Peak Area Ratio) Normalized” value (alkaline phosphatase; Time 60.0 mins, 37 degrees) was 3.0595. The “Formation … (Peak Area Ratio) mean” value (alkaline phosphatase; Time 60.0 mins, 37 degrees) was 0.5400, the “Formation … (Peak Area Ratio) Normalized” value (alkaline phosphatase; Time 75.0 mins, 37 degrees) was 3.2210 and the “Formation … (Peak Area Ratio) mean” value (alkaline phosphatase; Time 75.0 mins, 37 degrees) was 0.5685. The “Formation … (Peak Area Ratio) Normalized” value (alkaline phosphatase; Time 90.0 mins, 37 degrees) was 3.6402, the “Formation … (Peak Area Ratio) mean” value (alkaline phosphatase; Time 90.0 mins, 37 degrees) was 0.6425 and the “Formation … (Peak Area Ratio) Normalized” value (alkaline phosphatase; Time 105 mins, 37 degrees) was 3.8612. The “Formation … (Peak Area Ratio) mean” value (alkaline phosphatase; Time 105 mins, 37 degrees) was 0.6815, the “Formation … (Peak Area Ratio) Normalized” value (alkaline phosphatase; Time 120 mins, 37 degrees) was 3.9207 and the “Formation … (Peak Area Ratio) mean” value (alkaline phosphatase; Time 120 mins, 37 degrees) was 0.6920. For the same compound, the “Formation … (Peak Area Ratio) Normalized” value (alkaline phosphatase; Time 135 mins, 37 degrees) was 4.0793, the “Formation … (Peak Area Ratio) mean” value (alkaline phosphatase; Time 135 mins, 37 degrees) was 0.7200 and the “Formation … (Peak Area Ratio) Normalized” value (alkaline phosphatase; Time 150 mins, 37 degrees) was 4.2890. For the same compound, the “Formation … (Peak Area Ratio) mean” value (alkaline phosphatase; Time 150 mins, 37 degrees) was 0.7570, the “Formation … (Peak Area Ratio) Normalized” value (alkaline phosphatase; Time 165 mins, 37 degrees) was 4.4193 and the “Formation … (Peak Area Ratio) mean” value (alkaline phosphatase; Time 165 mins, 37 degrees) was 0.7800. The “Formation … (Peak Area Ratio) Normalized” value (alkaline phosphatase; Time 180 mins, 37 degrees) was 4.7082, the “Formation … (Peak Area Ratio) mean” value (alkaline phosphatase; Time 180 mins, 37 degrees) was 0.8310 and the “Formation … (Peak Area Ratio) Normalized” value (alkaline phosphatase; Time 210 mins, 37 degrees) was 5.0227. For the same compound, the “Formation … (Peak Area Ratio) mean” value (alkaline phosphatase; Time 210 mins, 37 degrees) was 0.8865, the “Formation … (Peak Area Ratio) Normalized” value (alkaline phosphatase; Time 240 mins, 37 degrees) was 5.0567 and the “Formation … (Peak Area Ratio) mean” value (alkaline phosphatase; Time 240 mins, 37 degrees) was 0.8925. The “Formation … (Peak Area Ratio) Normalized” value (alkaline phosphatase; Time 270 mins, 37 degrees) was 5.6997 and the “Formation … (Peak Area Ratio) mean” value (alkaline phosphatase; Time 270 mins, 37 degrees) was 1.0060.

Reference: patent publication US20100112061A1, “Monophosphates as Mutual Prodrugs of Muscarinic Receptor Antagonists and Beta-Agonists for the Treatment of COPD And Chronic Bronchitis” (priority 2006, published 2010)
